Test results from US20250066310A1, “MULTI-SUBSTITUTED URACIL DERIVATIVE AND PREPARATION METHOD THEREFOR AND APPLICATION THEREOF” (HANGZHOU ADAMERCK PHARMLABS INC., priority 2021, published 2025).

Tests used:
[1] = system: rats with focal cerebral ischemia (MCAO)/reperfusion; experiment: Prophylactic administration, cerebral ischemia-reperfusion injury (MCAO/R) in rats; assay type: in vivo; settings: 6 mg/kg tail vein, Mean ± SD, n = 8
Experimental: Experimental methods: SD rats were randomly divided into 6 groups, set as sham group, model control group, positive control drug ozagrel (6 mg/kg) group, and test drug compound 1-1 high (9 mg/kg), medium (3 mg/kg), and low (1 mg/kg) dose group. The administered groups were preadministered by tail vein injection, and the sham and model control groups were given an equal volume of saline, once a day for 3 consecutive days. Ten minutes after the last administration, the rat MCAO/R model was established, and reperfusion was performed 2 h after ischemia. 24 h after MCAO reperfusion, neurobehavioral scores were performed to determine the neurological function of rats; 2,3,5-triphenyltetrazolium chloride (TTC) staining method was used to determine the rate of cerebral infarction and cerebral water content in rats.

[2] = system: rats with autologous thrombus and thrombin-induced cerebral ischemic injury; experiment: Ischemic brain injury induced by autologous thrombus and thrombin in rats (i.v., alone or with urokinase); assay type: in vivo, SD rats; settings: n = 10
Experimental: Experimental Methods: A model of cerebral ischemic injury in SD rats was prepared by embolizing the middle cerebral artery of rats with autologous thrombus and thrombin via the external carotid artery to the internal carotid artery and the rats were randomly divided into 5 groups according to behavioral scores, a sham group (only the external carotid artery was isolated); a model-control group (saline was given to both groups in equal volume); urokinase (5000 U/kg) group; compound 1-1 ([…]) group; with 20 animals in each group (10 for detecting the rate of cerebral infarction, and the other 10 for pathological testing). Each group was administered slowly in the tail vein (1 ml per minute) 2 h after modeling, and the decrease in blood flow was monitored after thrombin injection and 120 min after administration. Neurobehavioral scoring was performed on the rats after 24 h to determine the neurological function of the rats; 2,3,5-triphenyltetrazolium chloride (TTC) staining was used to determine the rate of cerebral infarction and cerebral water content, and hematoxylin-eosin (HE) staining was used to observe the pathological damage of the brain in rats administered with the drug 2 h after cerebral ischemia.

Compound: O=C(O)/C=C/c1ccc(Cn2ccnc2)cc1 [Ozagrel, ozagrel, reference compound]
- Cerebral infarction rate (%) ([1]; 3 days before MCAO/R, 24 h after reperfusion): 17.07 ± 10.69 %
- behavioral score ([1]; MCAO/R): 1.50 ± 0.76
- cerebral water content (%) ([1]; MCAO/R): 81.00 ± 0.98 %

Compound: Urokinase
- Cerebral infarction rate ([2]; 5000 U/kg i.v., TTC staining, mean ± S.D.): 9.72 ± 9.89
- behavioral score ([2]; 5000 U/kg i.v., after 24 h, Mean ± SD): 1.60 ± 0.70
- cerebral water content (%) ([2]; 5000 U/kg i.v., mean ± S.D.): 79.78 ± 0.72 %
- Percentage decrease two hours after administration (%) ([2]; cerebral blood flow, 5000 U/kg i.v. 2 h after modeling, Mean ± SD): 37.12 ± 4.49 %
- Percentage decrease after thrombin injection (%) ([2]; cerebral blood flow, before administration, 5000 U/kg group, Mean ± SD): 50.10 ± 7.94%
- Pathology Score ([2]; cerebral ischemic areas, 5000 U/kg i.v., mean ± SD): 1.75 ± 0.86
